Measured values: patent US20260256140A1, “BIPHENYL COMPOUNDS CONTAINING SUBSTITUTED SULFIDE (SULFOXIDE) GROUPS AND USES THEREOF” (METISA BIOTECHNOLOGY CO., LTD, priority 2021, published 2026)

Assays:
Format in all cases: in vivo
Mythimna separata = experiment: Activity against Mythimna separata, Airbrush spray on maize leaf pieces; conditions: 500 mg/L, 3 days after administration, 3rd-instar larvae
Experimental: Insecticidal activity determination experiments were conducted on several insects using the compound of the present invention and control compounds KC1, KC2, and KC3. Determination methods were described below. The compounds to be determined were each dissolved in a mixed solvent of acetone/methanol (1:1), and diluted using water containing 0.1% (wt) tween-80 to desired concentrations. With Mythimna separata and Plutella xylostella as targets, Airbrush spray method was adopted for activity determination. Determination Method: maize leaves were cut into 2 cm leaf pieces, and the front and back of each leaf piece were sprayed under an Airbrush spray treatment pressure of 10 psi (approximate to 0.7 kg/cm^2) and with a spray volume of 0.5 mL. After drying in the shade, 10 3rd-instar larvae were inoculated for each treatment, and each treatment was repeated for 3 times. After the treatment, the leaf pieces were put into an observation chamber at 25° C. and with a relative humidity of 60% to 70%, and the number of living larvae was investigated 3 days after the administration of the compounds, and the death rates were calculated.

Plutella xylostella = experiment: Activity against Plutella xylostella, Airbrush spray on cabbage leaf discs; conditions: 500 mg/L, 3 days after administration, 3rd-instar larvae
Experimental: Insecticidal activity determination experiments were conducted on several insects using the compound of the present invention and control compounds KC1, KC2, and KC3. Determination methods were described below. The compounds to be determined were each dissolved in a mixed solvent of acetone/methanol (1:1), and diluted using water containing 0.1% (wt) tween-80 to desired concentrations. With Mythimna separata and Plutella xylostella as targets, Airbrush spray method was adopted for activity determination. Determination Method: cabbage leaves were formed into leaf discs having a diameter of 2 cm using a puncher, and the front and back of each leaf disc were sprayed under an Airbrush spray treatment pressure of 10 psi (approximate to 0.7 kg/cm^2) and with a spray volume of 0.5 mL. After drying in the shade, 10 3rd-instar larvae were inoculated for each treatment, and each treatment was repeated for 3 times. After the treatment, the leaf discs were placed into an observation chamber at 25° C. and with a relative humidity of 60% to 70%, and the number of living larvae was investigated 3 days after the administration of the compounds, and the death rates were calculated.

Tetranychus cinnabarinus = experiment: Greenhouse acaricidal activity determination on Phaseolus vulgaris seedlings; conditions: 3 days after administration, parallel comparison
Experimental: Greenhouse acaricidal activity determination was carried out on the compounds of the present invention. A determination method was described below. […] Two true leaves of Phaseolus vulgaris seedlings were inoculated with adult Tetranychus cinnabarinus and a basic number was investigated. An entire seedling was then sprayed using a hand-held sprayer. Each treatment was repeated for 3 times. After the treatment, the seedlings were placed into a standard observation chamber, and the number of living mites was investigated 72 hours later, and the death rates were calculated. Parallel comparison experiments on acaricidal activity were conducted for Tetranychus cinnabarinus using the compounds 1.22, 1.23, and 1.24 and control compounds (3 days after the administration of the compounds), and the determination method was as described above; and the results were shown in Table 14: […]

Compound | death rate for Mythimna separata (Mythimna separata) | death rate for Plutella xylostella (Plutella xylostella) | Death Rate (%, 3 days after the administration of the compounds) 1.25 mg/L (Tetranychus cinnabarinus) | Death Rate (%, 3 days after the administration of the compounds) 2.5 mg/L (Tetranychus cinnabarinus)
Cc1cc(F)c(-c2cc(SCC(F)(F)F)c(C)cc2F)cc1SCC(F)(F)F [KC1] | 0% | 0% | 22.9% | 52.0%
Cc1cc(F)c(-c2cc([S+]([O-])CC(F)(F)F)c(C)cc2F)cc1SCC(F)(F)F (stereo not drawn) [KC2] | 0% | 0% | 0% | 50.0%
Cc1cc(F)c(-c2cc([S+]([O-])CC(F)(F)F)c(C)cc2F)cc1[S+]([O-])CC(F)(F)F (stereo not drawn) [KC3] | 0% | 0% | 0% | 0%
